Patent US8754242B2, “Herbicides” (Syngenta Crop Protection LLC, priority 2007, dated 2014)

What was measured:
Type in all cases: in vivo
[1] = system: Alopecurus myosuroides (ALOMY); assay: Test Example 1 pre-emergence herbicidal activity; conditions: Alopecurus myosuroides, 480 h, rate 250 g/ha, evaluated 20 days later, read-out: Pre-emergence activity ALOMY (100=total damage to plant; 0=no damage to plant)
In short: (§1)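 Pots sown in standard soil were sprayed 1 day (pre-emergence) or 10 days (post-emergence) after sowing with an aqueous spray from an acetone/Emulsogen EL/N-methylpyrrolidone-based formulation. Visual damage was scored 20 days (pre) or 15 days (post) later in the greenhouse, 0 = none to 100 = total.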

Avena fatua (AVEFA) [2] = assay: Test Example 1 pre-emergence herbicidal activity; conditions: Avena fatua, 480 h, rate 250 g/ha, evaluated 20 days later, read-out: Pre-emergence activity AVEFA (100=total damage to plant; 0=no damage to plant)
In short: as §1

[3] = system: Digitaria sanguinalis (DIGSA); assay: Test Example 1 pre-emergence herbicidal activity; conditions: Digitaria sanguinalis, 480 h, rate 250 g/ha, evaluated 20 days later, read-out: Pre-emergence activity DIGSA (100=total damage to plant; 0=no damage to plant)
In short: as §1

Setaria faberi (SETFA) [4] = assay: Test Example 1 pre-emergence herbicidal activity; conditions: Setaria faberi, 480 h, rate 250 g/ha, evaluated 20 days later, read-out: Pre-emergence activity SETFA (100=total damage to plant; 0=no damage to plant)
In short: as §1

[5] = system: Echinochloa crus-galli (ECHCG); assay: Test Example 1 pre-emergence herbicidal activity; conditions: Echinochloa crus-galli, 480 h, rate 250 g/ha, evaluated 20 days later, read-out: Pre-emergence activity ECHCG (100=total damage to plant; 0=no damage to plant)
In short: as §1

Lolium perenne (LOLPE) [6] = assay: Test Example 1 pre-emergence herbicidal activity; conditions: Lolium perenne, 480 h, rate 250 g/ha, evaluated 20 days later, read-out: Pre-emergence activity LOLPE (100=total damage to plant; 0=no damage to plant)
In short: as §1

[7] = system: Alopecurus myosuroides (ALOMY); assay: Test Example 1 post-emergence herbicidal activity; conditions: 360 h, rate 125 g/ha, evaluated 15 days later, read-out: Post-emergence activity ALOMY (100=total damage to plant; 0=no damage to plant)
In short: as §1

Avena fatua (AVEFA) [8] = assay: Test Example 1 post-emergence herbicidal activity; conditions: 360 h, rate 125 g/ha, evaluated 15 days later, read-out: Post-emergence activity AVEFA (100=total damage to plant; 0=no damage to plant)
In short: as §1

[9] = system: Digitaria sanguinalis (DIGSA); assay: Test Example 1 post-emergence herbicidal activity; conditions: 360 h, rate 125 g/ha, evaluated 15 days later, read-out: Post-emergence activity DIGSA (100=total damage to plant; 0=no damage to plant)
In short: as §1

Setaria faberi (SETFA) [10] = assay: Test Example 1 post-emergence herbicidal activity; conditions: 360 h, rate 125 g/ha, evaluated 15 days later, read-out: Post-emergence activity SETFA (100=total damage to plant; 0=no damage to plant)
In short: as §1

[11] = system: Echinochloa crus-galli (ECHCG); assay: Test Example 1 post-emergence herbicidal activity; conditions: 360 h, rate 125 g/ha, evaluated 15 days later, read-out: Post-emergence activity ECHCG (100=total damage to plant; 0=no damage to plant)
In short: as §1

Lolium perenne (LOLPE) [12] = assay: Test Example 1 post-emergence herbicidal activity; conditions: 360 h, rate 125 g/ha, evaluated 15 days later, read-out: Post-emergence activity LOLPE (100=total damage to plant; 0=no damage to plant)
In short: as §1

Row | Compound | pest or weed control at 250 g/ha [1] [%] | pest or weed control at 250 g/ha (Avena fatua (AVEFA) [2]) [%] | pest or weed control at 250 g/ha [3] [%] | pest or weed control at 250 g/ha (Setaria faberi (SETFA) [4]) [%] | pest or weed control at 250 g/ha [5] [%] | pest or weed control at 250 g/ha (Lolium perenne (LOLPE) [6]) [%] | pest or weed control at 125 g/ha [7] [%] | pest or weed control at 125 g/ha (Avena fatua (AVEFA) [8]) [%] | pest or weed control at 125 g/ha [9] [%] | pest or weed control at 125 g/ha (Setaria faberi (SETFA) [10]) [%] | pest or weed control at 125 g/ha [11] [%] | pest or weed control at 125 g/ha (Lolium perenne (LOLPE) [12]) [%]
1 | CCc1cc(C)cc(CC)c1C1=C(O)[C@@H]2[C@@H]3O[C@@H](C[C@H]3c3ccc(Cl)c(Cl)c3)[C@@H]2C1=O [Example T150] | 0 | 0 | 0 | 0 | 40 | 30 | 60 | 60 | 30 | 90 | 100 | 40
2 | CCc1cc(C)cc(CC)c1C1=C(O)[C@@H]2[C@@H]3O[C@@H](C[C@H]3c3ccc(C)c(Cl)c3)[C@@H]2C1=O [Example T151] | 50 | 20 | 80 | 20 | 40 | 60 | 80 | 80 | 70 | 10 | 80 | 30
3 | CCc1cc(C)cc(CC)c1C1=C(O)[C@@H]2[C@@H]3O[C@@H](C[C@H]3c3cccc(OC)c3)[C@@H]2C1=O [Example T153] | 70 | 70 | 60 | 70 | 70 | 80 | 50 | 80 | 30 | 20 | 70 | 50
4 | CCc1cc(C)cc(CC)c1C1=C(O)[C@@H]2[C@@H]3O[C@@H](C[C@H]3c3cccc(C(F)(F)F)c3)[C@@H]2C1=O [Example T154] | 70 | 50 | 70 | 70 | 100 | 80 | 90 | 60 | 70 | 70 | 100 | 60
5 | CCc1cc(C)cc(CC)c1C1=C(O)[C@@H]2[C@@H]3O[C@@H](C[C@H]3c3ccc(Cl)cc3)[C@@H]2C1=O [Example T155] | 60 | 50 | 70 | 60 | 60 | 80 | 90 | 70 | 100 | 100 | 100 | 60
6 | CCc1cc(C)cc(CC)c1C1=C(O)C2[C@@H](C1=O)[C@@H]1C[C@@H](c3ccc(OC)cc3)[C@H]2O1 (stereo partly drawn) [Example T156] | 70 | 60 | 70 | 70 | 70 | 70 | 90 | 80 | 70 | 100 | 100 | 70
7 | CCc1cc(C)cc(CC)c1C1=C(O)[C@@H]2[C@@H]3O[C@@H](C[C@H]3c3ccc([N+](=O)[O-])cc3)[C@@H]2C1=O [Example T158] | 60 | 50 | 70 | 70 | 50 | 70 | 90 | 90 | 100 | 100 | 100 | 80
8 | CCc1cc(C)cc(CC)c1C1=C(O)[C@@H]2[C@@H]3O[C@@H](C[C@H]3c3ccc(C#N)cc3)[C@@H]2C1=O [Example T160] | 30 | 50 | 40 | 70 | 40 | 40 | 90 | 90 | 100 | 100 | 100 | 70
9 | CCc1cc(C)cc(CC)c1C1=C(O)[C@@H]2[C@@H]3O[C@@H](C[C@H]3c3ccc(SC)cc3)[C@@H]2C1=O [Example T162] | 70 | 70 | 40 | 10 | 80 | 90 | 90 | 90 | 100 | 100 | 100 | 70
10 | CCc1cc(C)cc(CC)c1C1=C(O)[C@@H]2[C@@H]3O[C@@H](C[C@H]3c3ccc(F)cc3F)[C@@H]2C1=O [Example T163] | 70 | 60 | 90 | 90 | 80 | 90 | 80 | 80 | 70 | 90 | 100 | 80
11 | CCc1cc(C)cc(CC)c1C1=C(O)[C@@H]2[C@@H]3O[C@@H](C[C@H]3c3ccc([N+](=O)[O-])cc3Cl)[C@@H]2C1=O [Example T167] | 30 | 40 | 30 | 0 | 50 | 40 | 80 | 50 | 70 | 70 | 100 | 50
12 | CCc1cc(C)cc(CC)c1C1=C(O)[C@@H]2[C@@H]3O[C@@H](C[C@H]3c3cc(C(F)(F)F)ccc3Cl)[C@@H]2C1=O [Example T169] | 20 | 30 | 0 | 0 | 0 | 40 | 90 | 10 | 40 | 60 | 80 | 30
13 | CCc1cc(C)cc(CC)c1C1=C(O)[C@@H]2[C@@H]3O[C@@H](C[C@H]3c3ccc(C(C)=O)cc3)[C@@H]2C1=O [Example T171] | 30 | 0 | 40 | 70 | 70 | 10 | 70 | 60 | 80 | 90 | 100 | 20
